Test results published in publication PMC6149814, “Enhanced Intestinal Permeability of Bufalin by a Novel Bufalin-Peptide-Dendrimer Inclusion through Caco-2 Cell Monolayer” (Molecules : A Journal of Synthetic Chemistry and Natural …, 2017).

Legend:
[1] = Cytotoxicity in Caco-2 cells by MTT assay; format: cell-based; conditions: human
Experimental: The viability of Caco-2 cells were measured after treated for 180 min with Hanks’ balanced salts solution (HBSS) (negative control), paclitaxel (positive control, 25, 50, 75 and 100 μM), BFL (50, 75, 100 and 125 μM) and BPDI (containing BFL 50, 75, 100 and 125 μM), respectively.
The cytotoxicities of free BFL and its formulation, BPDI against Caco-2 cells were tested using the 3-(4,5-dimethylthiazol-2-yl)-2,5-diphenyltetrazolium bromide (MTT) assay. Caco-2 cells at the logarithmic growth were seeded in 96-well plate at the concentration of […] and incubated in an atmosphere of 5% CO2 and 90% relative humidity at 37 °C for three days. After cells attachment, HBSS solution (negative control), paclitaxel (positive control, 25, 50, 75, and 100 μM), BFL (50, 75, 100, and 125 μM), and BPDI (containing BFL 50, 75, 100, and 125 μM) solutions were added into each well, respectively. After cells were treated for three hours, HBSS solution was removed, and cells were rinsed with PBS and incubated with 20 μL of MTT solution (0.5 mg/mL) for 4 h at 37°C and 5% CO2. Then the cells were shaken with 200 μL of DMSO for 10 min, and the absorbance was read on the microplate reader (SPECTROstar Omega, BMG LabTech GmbH, Ortenberg, Germany) at 570 nm. The viability rates were calculated by the equation: % = A/A0 × 100, wherein A was the average absorbance value of treatment group, and A0 was the average absorbance value of negative control group.

in vitro = conditions: human
Experimental: (§1) Caco-2 cells (4.0 × 10^5 per mL) at the logarithmic growth were seeded into the AP (apical) side of a 24-well Transwell™ plates (Corning Inc., Cambridge, MA, USA). DMEM solution was added into the apical (AP) side (0.5 mL) and basal (BL) side (1.0 mL) of the chamber, respectively. The cell culture was maintained at 37 °C under 90% humidity and 5% CO2. The medium was refreshed every two days in the first week, and then on every day the following week. […] The cell inserts were considered as qualified for trans-membrane transport evaluation only if the resistance reached above […].
(§2) On day 21, the culture medium was removed from the AP and BL sides of the trans-well filters. The Caco-2 monolayers were rinsed twice with pre-warmed HBSS (37 °C) and incubated for 20 min. Then HBSS was removed completely. The test solution of BFL or BPDI (was added to AP (0.4 mL) or BL side (3.2 mL), and then same volume of HBSS was added to the corresponding sides (BL or AP sides). Incubation continued at 37 °C for 180 min. To evaluate the permeability of test compounds across the cell monolayer, solutions from BL (0.4 mL) or AP (3.2 mL) side were collected at different time intervals (60, 120, and 180 min), and replaced with the same volume of HBSS. The collected solutions were lyophilized and stored under −80 °C before HPLC analysis. Experiments for each time point were repeated three times and were performed on the independent chamber.
(§3) Chromatographic analysis was performed using a Alltima TM C18 column (4.6× 250 mm, 5 μm) on an Agilent 1200 liquid chromatography system, equipped with a quaternary solvent delivery system, an auto-sampler and a DAD detector. The isocratic eluting solution consists of A: 0.2% phosphoric acid and B: acetonitrile (54:46, v/v); the detection wavelength and flow rate were set at 226 nm and 1.0 mL/min, respectively. The HPLC analysis will be run for 25 min.
(§4) Apparent permeability values (Papp) for the test compound was calculated according to the equation [22] Papp = (dQ/dt)/(AC0) where Papp is the apparent permeability (cm/s), dQ/dt is the appearance rate of the test compound on the receiver side (μg/s), A represents the surface area of carbon ester membrane (cm^2), and C0 is the initial concentration of compounds on the given sides (μg/L).

Caco-2 cell monolayer = test: in vitro
Experimental: as §1, §2, §3, §4

## C[C@]12CC[C@H](O)C[C@H]1CC[C@@H]1[C@@H]2CC[C@]2(C)[C@@H](c3ccc(=O)oc3)CC[C@]12O [BFL, Bufalin]
[1]; Caco-2 cells, 50 μM (BPDI: containing BFL 50 μM), MTT
  viability at 180 min, 50 μM: 102 ± 7.2%
[1]; Caco-2 cells, 75 μM (BPDI: containing BFL 75 μM), MTT
  viability at 180 min, 75 μM: 100 ± 8.6%
[1]; Caco-2 cells, 100 μM (BPDI: containing BFL 100 μM), MTT
  viability at 180 min, 100 μM: 99.1 ± 8.5%
[1]; Caco-2 cells, 125 μM (BPDI: containing BFL 125 μM), MTT
  viability at 180 min, 125 μM: 98.9 ± 6.4%
[1]; Caco-2 cells, 50, 75, 100 and 125 μM, read-out: viabilities after treatment
  viability at 180 min: > 95%
In vitro; Caco-2, Papp AP→BL, 50 μM, 120 min, concentration series (Table 2), n = 3
  Papp A→B at 120 min, 50 μM: 1.58 ± 0.32 ×10⁻⁶ cm/s
In vitro; Caco-2, Papp AP→BL, 75 μM, 60 min, time course (Table 3), n = 3
  Papp A→B at 60 min, 75 μM: 1.52 ± 0.22 ×10⁻⁶ cm/s
In vitro; Caco-2, Papp AP→BL, 75 μM, 120 min, concentration series (Table 2), n = 3
  Papp A→B at 120 min, 75 μM: 1.47 ± 0.08 ×10⁻⁶ cm/s
In vitro; Caco-2, Papp AP→BL, 75 μM, 120 min, time course (Table 3), n = 3
  Papp A→B at 120 min, 75 μM: 1.36 ± 0.08 ×10⁻⁶ cm/s
In vitro; Caco-2, Papp AP→BL, 75 μM, 180 min, time course (Table 3), n = 3
  Papp A→B at 180 min, 75 μM: 1.28 ± 0.02 ×10⁻⁶ cm/s
In vitro; Caco-2, Papp AP→BL, 100 μM, 120 min, concentration series (Table 2), n = 3
  Papp A→B at 120 min, 100 μM: 1.46 ± 0.02 ×10⁻⁶ cm/s
In vitro; Caco-2, Papp AP→BL, 125 μM, 120 min, concentration series (Table 2), n = 3
  Papp A→B at 120 min, 125 μM: 1.64 ± 0.12 ×10⁻⁶ cm/s
In vitro; Caco-2, Papp BL→AP, 50 μM, 120 min, concentration series (Table 2), n = 3
  Papp B→A at 120 min, 50 μM: 1.37 ± 0.18 ×10⁻⁶ cm/s
In vitro; Caco-2, Papp BL→AP, 75 μM, 60 min, time course (Table 3), n = 3
  Papp B→A at 60 min, 75 μM: 1.14 ± 0.28 ×10⁻⁶ cm/s
In vitro; Caco-2, Papp BL→AP, 75 μM, 120 min, concentration series (Table 2), n = 3
  Papp B→A at 120 min, 75 μM: 1.32 ± 0.14 ×10⁻⁶ cm/s
In vitro; Caco-2, Papp BL→AP, 75 μM, 120 min, time course (Table 3), n = 3
  Papp B→A at 120 min, 75 μM: 1.08 ± 0.17 ×10⁻⁶ cm/s
In vitro; Caco-2, Papp BL→AP, 75 μM, 180 min, time course (Table 3), n = 3
  Papp B→A at 180 min, 75 μM: 0.99 ± 0.12 ×10⁻⁶ cm/s
In vitro; Caco-2, Papp BL→AP, 100 μM, 120 min, concentration series (Table 2), n = 3
  Papp B→A at 120 min, 100 μM: 1.29 ± 0.1 ×10⁻⁶ cm/s
In vitro; Caco-2, Papp BL→AP, 125 μM, 120 min, concentration series (Table 2), n = 3
  Papp B→A at 120 min, 125 μM: 1.35 ± 0.45 ×10⁻⁶ cm/s
In vitro; Caco-2, Papp value (range over concentrations/times, text), summary of Table 2 and Table 3
  Papp: 1.46 to 1.62 ×10⁻⁶ cm/s
In vitro; Caco-2, apparent permeability coefficient (Papp) values (abstract), BFL in free or BPDI form
  Papp: > 1 ×10⁻⁶ cm/s
Caco-2 cell monolayer; Caco-2 monolayer
  main transport mechanism: passive diffusion
Caco-2 cell monolayer; due to a Papp value of 1–10 × 10^−6 cm/s
  transport classification: moderate transport

## CC(=O)O[C@H]1C(=O)[C@@]2(C)[C@H]([C@H](OC(=O)c3ccccc3)[C@]3(O)C[C@H](OC(=O)[C@H](O)[C@@H](NC(=O)c4ccccc4)c4ccccc4)C(C)=C1C3(C)C)[C@]1(OC(C)=O)CO[C@@H]1C[C@@H]2O [Paclitaxel, paclitaxel]
[1]; Caco-2 cells, 25 μM, 180 min, MTT
  viability at 25 µM: 65.3 ± 7.2%
[1]; Caco-2 cells, 50 μM (BPDI: containing BFL 50 μM), 180 min, MTT
  viability: 43.5 ± 5.4%
[1]; Caco-2 cells, 75 μM (BPDI: containing BFL 75 μM), 180 min, MTT
  viability: 34.8 ± 3.2%
[1]; Caco-2 cells, 100 μM (BPDI: containing BFL 100 μM), 180 min, MTT
  viability: 30.5 ± 2.6%
